Patent publication US8629242B2, “Methods of inhibiting calcineurin with ApoE analogs” (Cognosci, Inc., priority 2007, dated 2014)
Where a SMILES comes first, the peptide text is derived from it. [ ]: non-standard residue; d: D form. Aib = CC(C)(N)C(=O)O

How the values were obtained:
enriched OPC cultures = assay: Number of mature oligodendrocytes after differentiation of enriched OPC culture; format: cell-based, rat; settings: 2 μM COG 133, 1 μM COG 112 or 1 μM COG 68 for four days, then six days differentiation without analog
Method: FIG. 11. ApoE analogs increase the number of mature oligodendrocytes in culture. ApoE analogs (COG 133, COG 112, and COG 68) were added to enriched OPC culture in proliferation media for four days. Cultures were then differentiated in the absence of the ApoE analogs. Cells were labeled with a GST-π antibody to detect mature oligodendrocytes.
Since COG 112 increased the proliferation of OPCs, we next examined whether the ApoE analogs could also increase the number of mature oligodendrocytes. Enriched OPC cultures were prepared as described for the previous experiment. 2 μM COG 133 (SEQ ID NO: 1), 1 μM COG 112 (SEQ ID NO: 5), or 1 μM COG 68 (Ac-[…]-NH2; SEQ ID NO: 7) were added to the enriched OPC cultures in proliferation media for four days. The media was then replaced with differentiation medium without the ApoE analogs for an additional six days. Cells were labeled with a GST-π antibody to detect mature oligodendrocytes.

[1] = test system: peritoneal macrophages isolated from EAE mice; assay: In vitro effect on LPS+IFN-γ-induced inflammatory mediators in macrophages from saline-treated EAE mice; format: cell-based; settings: for inhibition of NO release: 72 hours after LPS+IFN-γ; for NOS2 expression (real-time PCR): normalized to 18S rRNA, fold change vs control
Method: FIG. 5. In vitro effects of COG compounds on LPS and IFN-γ-induced production of inflammatory mediators in cultured peritoneal macrophages isolated from EAE mice. Conditioned medium with or without COG 133 or COG 112 was collected 45 hours after immunogen exposure for analysis of TNF-α (A) and IL-6 (B), or 72 hours after inflammatory stimulation for measurement of nitrite (C). Level of NOS2 expression was assessed by quantitative real-time PCR (D). NOS2 expression was first normalized by the endogenous control (18S rRNA) and then expressed as fold change compared to control group. Statistical analysis was performed by ANOVA and significance was shown as *(p<0.05) and **(p<0.001).
We then examined the ability of COG 112 (SEQ ID NO: 5) and COG 133 (SEQ ID NO: 1) to inhibit the in vitro release of NO, TNF-α and IL-6 using macrophages obtained from saline-treated EAE mice on dpi 35. Conditioned medium with or without COG 133 or COG 112 was collected 45 hours after immunogen (LPS+IFN-γ) exposure for analysis of TNF-α and IL-6, or 72 hours after stimulation for measurement of nitrite. […] Levels of NOS2 expression were quantified by real-time PCR. NOS2 expression was first normalized by the endogenous control (18S rRNA) and then expressed as fold change compared to control group.

Calcineurin = target: T1, Calcineurin (Homo sapiens, UniProt Q08209); assay: Cell-free calcineurin phosphatase activity assay (BioMol kit); format: biochemical; settings: various concentrations
T1 construct: purchased BioMol AK-804
Method: FIG. 14. ApoE analogs bind directly to calcineurin and inhibit its activity. […] (B) Immunoprecipitation of human brain lysate with a biotin-COG 133 conjugate. Lane 1=markers; lane 2=clear bead; lane 3=biotin-COG 133 bead conjugate; and lane 4=10 μg lysate. (C) Immunoprecipitation of different glial cultures with a biotin-COG 133 conjugate. Lane 1=markers; lane 2=astrocyte; lane 3=microglia; and lane 4=oligodendrocyte precursor cells (OPC). Blots in B and C were probed for calcineurin (PP2B).
Calcineurin activity was measured in a cell-free in vitro assay in the presence of various concentrations of COG 133 (SEQ ID NO: 1), COG 112 (SEQ ID NO: 5), COG 68 (SEQ ID NO: 7), COG 125 (Ac-AS(Aib)LRKL(Aib)KR—COOH; SEQ ID NO: 8), or antennapedia (antp), the prefix peptide for COG 112. […] Using a BioMol Calcineurin Phosphatase Activity Kit (Cat. #AK-804), the assay was conducted according to manufacturer's instructions. […] This inhibition of calcineurin activity by ApoE analogs is mediated by a direct interaction of the ApoE analog with the phosphatase.

[2] = test system: macrophage cell line U937; assay: Superoxide release in PMA+LPS-treated U937 macrophages; format: cell-based, human; settings: 10 μM, IFN-γ-differentiated cells
Method: FIG. 16. ApoE analogs suppress the release of nitric oxide (A) and TNF-α (B) in LPS-treated BV2 microglia cells. Series concentrations of ApoE analogs were added to culture medium together with LPS (10 ng/ml). 24 hours later, culture medium was collected for measurement of NO by Griess assay or TNF-α by ELISA. (C) ApoE analogs inhibit superoxide formation in PMA+LPS-treated human macrophage cell line U937. ApoE analogs (10 μM) were added to the cell medium of human macrophage U937 5 minutes prior to PMA+LPS treatment. The release of superoxide in culture medium was measured by Luminol assay kit (Calbiochem).
To determine the anti-oxidant effect of the different ApoE analogs, the human macrophage cell line U937 was differentiated with IFN-γ (40 U/ml) for 4 days and treated with phorbol-12-myristate-13-acetate (PMA) and LPS with or without ApoE analogs (10 μM). The release of superoxide in the medium was measured by Luminol Superoxide Assay kit (Calbiochem, CA).

enriched OPCs = assay: OPC proliferation (BrdU) in enriched OPC culture; format: cell-based, rat; settings: 1 μM, three days in proliferation medium
Method: FIG. 10. ApoE analog promotes proliferation of OPCs in culture. Cultures enriched in OPCs were grown in proliferation media containing BrdU in the presence and absence of 1 μM COG 112 or a peptide control. Cells were subsequently labeled with Hoescht stain to detect nuclei, a BrdU antibody to detect proliferating cells, and an A2B5 antibody to identify OPCs (left panel). The number of cells per field were counted for each condition (right panel). In graph, the Hoescht bars correspond to the total number of A2B5^+/Hoescht^+ cells, while the BrdU bars correspond to […] cells.
Enriched OPCs were collected by shaking a primary culture of P2 rat pup brain. Proliferation medium containing COG 112 (1 μM), BrdU (20 μM), 10 ng/mL FGF and PDGF was added to the enriched OPC cultures. After three days in culture, cells were stained with Hoescht stain to show nuclei, a BrdU antibody to identify proliferating cells, and an A2B5 antibody to identify OPCs (FIG. 10). Antennapedia, the prefix peptide of COG 112, was used as a control.

[3] = 45 hours after LPS+IFN-γ, dose-dependent suppression

Compound: CC(=O)N[C@@H](CC(C)C)C(=O)N[C@@H](CCCNC(=N)N)C(=O)N[C@H](C(=O)N[C@@H](CCCNC(=N)N)C(=O)N[C@@H](CC(C)C)C(=O)N[C@@H](C)C(=O)N[C@@H](CO)C(=O)N[C@@H](Cc1c[nH]cn1)C(=O)N[C@@H](CC(C)C)C(=O)N[C@@H](CCCNC(=N)N)C(=O)N[C@@H](CCCCN)C(=O)N[C@@H](CC(C)C)C(=O)N[C@@H](CCCNC(=N)N)C(=O)N[C@@H](CCCCN)C(=O)N[C@@H](CCCNC(=N)N)C(=O)N[C@@H](CC(C)C)C(=O)N[C@@H](CC(C)C)C(N)=O)C(C)C [COG 133]
- number of mature oligodendrocytes (GST-π) (enriched OPC cultures): significantly increased the number of mature oligodendrocytes
- suppression of IL-6 ([1]; 5 μM, 45 hours after LPS+IFN-γ): only moderate, yet statistically significant, suppression
- suppression of TNF-α ([1]; 5 μM, 45 hours after LPS+IFN-γ): only moderate, yet statistically significant, suppression
- inhibition of NO release ([1]; 5 μM): about 37%
- NOS2 expression (real-time PCR) [1]: affect NOS2 expression
- inhibition of calcineurin activity (Calcineurin): dose-dependent inhibition

Compound: CC(=O)NC(=N)NCCC[C@H](NC(=O)[C@H](CCCCN)NC(=O)[C@H](CCCNC(=N)N)NC(=O)[C@H](CC(C)C)NC(=O)[C@H](CCCCN)NC(=O)[C@H](CCCNC(=N)N)NC(=O)[C@H](CC(C)C)NC(=O)C(C)(C)NC(=O)[C@H](CO)NC(=O)[C@H](C)NC(=O)[C@H](CC(C)C)NC(=O)[C@H](CCCNC(=N)N)NC(=O)[C@@H](NC(=O)[C@H](CCCNC(=N)N)NC(=O)[C@H](CC(C)C)NC(C)=O)C(C)C)C(=O)N[C@@H](CC(C)C)C(=O)N[C@@H](CC(C)C)C(N)=O [COG 345, acetyl-LRVRLAS-Aib-LRKLRK(acetyl-Arg)LL-amide] (Ac-LRVRLAS[Aib]LRKLRKR(Ac)LL-NH2)
- superoxide release [2]: significantly inhibited superoxide release

Compound: Ac-RQIKIWFQNRRMKWKKCLRVRLASHLRKLRKRLL-NH2 [COG 112]
- number of mature oligodendrocytes (GST-π) (enriched OPC cultures): significantly increased the number of mature oligodendrocytes
- inhibition of NO release ([1]; 5 μM): completely inhibited
- concentration giving complete inhibition of IL-6 levels [1, 3]: about 5 μM
- concentration giving complete inhibition of TNF-α levels [1, 3]: about 5 μM
- NOS2 expression (real-time PCR) [1]: more potent effect than COG 133
- superoxide release [2]: significantly inhibited superoxide release
- number of A2B5+/BrdU+ cells (enriched OPCs): significantly increased
- inhibition of calcineurin activity (Calcineurin): dose-dependent inhibition
